In patent US20250154201A1, “PEPTIDE BINDING TO MESOTHELIN, AND USE THEREOF” (KYUNGPOOK NATIONAL UNIVERSITY INDUSTRY-ACADEMIC COOPERATION …, priority 2022, published 2025):
≈ marks a conversion by molar mass, not a printed value. Positions of bridges follow the written chain, without caps; N, C: chain ends. Residues, ends and D or L forms follow the SMILES beside them. No end group written: not given here.

Legend:
[1] = in vitro
Protocol: (§1) Pancreatic cancer cell line AsPC-1 cells (5×10^3 cells/well in 96-well plates) were cultured in 1% serum medium with various concentrations of MSLN-pep peptide that specifically binds to mesothelin, NSSSVDK control peptide (Ctrl-pep), R7-KLA peptide that induces apoptosis, Abraxane, gemcitabine, and PBS at 37° C. for 24 and 48 hours. Afterwards, CCK-8 Kit (Dojindo, Kumamoto, Japan) reagent was treated, and a reaction was carried out at 37° C. for 2 hours to evaluate cytotoxicity.
(§2) To determine whether there is cytotoxicity when MSLN-pep binds specifically to mesothelin, the peptide was treated to the pancreatic cancer cell line AsPC-1 at concentrations of 0, 25, 50, 100, and 200 μM, and cell viability was checked for 24 and 48hours.

[2] = test system: pancreatic cancer cell line AsPC-1; experiment: in vitro
Protocol: as §1, §2

[3] = test system: PANC-1 and AsPC-1 cell lines; experiment: analysis of invasion (Matrigel-coated 24-transwell); type: cell-based, human; settings: 200 μM + 10% FBS; 24 hours
Protocol: PANC-1 and AsPC-1 cell lines were cultured using DMEM and RPMI-1640 media with 10% FBS added in 100 mm dish each at a concentration of 2×10^6 cells per well. After 24 hours, all media in 100 mm dishes were removed and replaced with DMEM and RPMI-1640 media without addition of 10% FBS to inhibit migratability of cell lines so as to be in a starvation state. After 24 hours, 300 μg/mL of Matrigel was coated on the upper chamber of 24-Transwell. Afterwards, PANC-1 and AsPC-1 cell lines were cultured in the upper chamber at a concentration of 2×10^4 cells in a 100 mm dish, 10% FBS was added to the lower chamber for the experimental group, and 0% FBS was added to the lower chamber for the control group to identify migratability. 3% ACN, 200 μM control peptide (Ctrl-pep), MSLN-pep 25. For 50, 100, and 200 μM groups, each cell line was cultured together in the upper chamber of the 24-Transwell, and 10% FBS was treated in the lower chamber. Each group was cultured at 37° C. for 24 hours, and then the cells were photographed (original magnification, ×100) for each concentration of peptides. Cells were stained with crystal violet (0.1%), and Image J, a computer program, was used for quantitative evaluation.
(§3) After pancreatic cancer cell lines PANC-1 and AsPC-1 were cultured in 24-transwells, all cells were starved for 24 hours to inhibit cell growth, and then treatment was performed in divided groups of 10% FBS, 0% FBS, 3% ACN+10% FBS, 200 μM NSSSVDK+10% FBS, 25 μM MSLN-pep+10% FBS, 50 μM MSLN-pep+10% FBS, 100 μM MSLN-pep+10% FBS, and 200 μM MSLN-pep+10% FBS.

[4] = test system: pancreatic cancer cell lines PANC-1 and AsPC-1; experiment: internalization of FITC-labeled peptides (confocal microscopy); type: cell-based, human; settings: 25 μM and 50 μM MSLN-pep, 50 uM NSSSVDK; 1 and 2 hours
Protocol: To observe the intracellular distribution of the internalized FITC-labeled peptide MSLN-pep, pancreatic cancer cell lines AsPC-1 and PANC-1 cells (2.5×10^5 cell counts) were dispensed on a 4-well chamber slide. After complete adhesion, the cell culture medium was replaced with a fresh medium containing FITC-labeled peptides (25 μM, 50 μM), […], and the cells were washed with PBS 3 times for 3˜5 minutes, followed by fixation (4% paraformaldehyde; PFA) for 5 minutes. Thereafter, washing with PBS was performed. After staining the nucleus with DAPI and mounting on a glass slide with a fading reagent, internalization of FITC-labeled MSLN-pep was observed under confocal microscopy.

[5] = target: mesothelin (Homo sapiens, UniProt Q13421); experiment: immunofluorescence binding to HEK-293T cells transiently transfected with mesothelin-GFP plasmid; type: cell-based; parameters: GFP; host or cells: HEK293T; settings: 10 μM and 25 μM MSLN-pep, 25 μM Ctrl-pep; transfected and untransfected HEK-293T
Protocol: HEK293T cells were transiently transfected using Lipofectamine 3000 (Invitrogen) in 6-well plates according to the manufacturer's protocol. Prior to transfection, 2×10^5 cells were cultured in 6-well plates for 24 hours. To transfect one well, 7.5 μl of Lipofectamine 3000 reagent was diluted in 250 μl of Opti-MEM (Invitrogen) reagent, followed by a reaction at room temperature for 5 minutes. 5 μg of mesothelin-expressing plasmid pCMV6-AC-GFP vector DNA was diluted in 250 μl of Opti-MEM (Invitrogen) reagent, followed by a reaction at room temperature for 5 minutes. The mixture of two solutions were then mixed and reacted at room temperature for 10 minutes (a total of 500 μl per well). The old medium of the cells was immediately removed, and a 500 μl of DNA-transfection reagent-mixture was added to the cells before transfer to the incubator. After 24 hours of culture, the medium was again replaced with a pre-warmed growth medium containing serum. Culture was performed for 48 hours, and the newly inserted protein was expressed in the cells.
Taken together, it was found via immunofluorescence analysis that MSLN-pep specifically binds to mesothelin.

[6] = test system: AsPC-1 tumor; experiment: tumor homing of peptides in mice; type: in vivo, nude mice; settings: TAMRA-labeled, intravenous, 6 hours circulation; liver, lungs, kidneys
Protocol: Pancreatic cancer cell line AsPC-1 cells (1×10^7 cells) were implanted under the skin of nude mice, left until the tumor size reaches about 100 mm^3, and then intravenously injected with 100 μl of 1 mM peptides labeled with a TAMRA fluorescence reagent, followed by circulation for 6 hours. Tumors and organs (liver, lung, and kidney) were separated and treated with paraformaldehyde for fixation and preparation of cryosections. The prepared cryosections were observed under a fluorescence microscope.
Pancreatic cancer cell line AsPC-1 cells (1×10^7 cells) were implanted under
the skin of nude mice, left until the tumor size reached about 100 mm^3, and then intravenously injected with MSLN-pep labeled with the TAMRA fluorescence reagent and control peptide (Ctrl-pep), followed by circulation for 6 hours. The tumor and control organs were separated, and cryosections were prepared, followed by observation under a fluorescence microscope.

[7] = test system: PANC-1 and AsPC-1 cell lines; experiment: analysis of migration (24-transwell); type: cell-based, human; settings: 200 μM + 10% FBS; 24 hours
Protocol: PANC-1 and AsPC-1 cell lines were cultured using DMEM and RPMI-1640 media with 10% FBS added respectively in the upper chamber of 24-transwell at a concentration of 2×10^4 cells per well. After 24 hours, all the media in the upper chamber of 24-transwells were removed and replaced with DMEM and RPMI-1640 media without addition of 10% FBS to inhibit migratability of cell lines, so as to be in a starvation state. After 24 hours, the experimental group was added with 10% FBS in the lower chamber, and the control was added with 0% FBS in the lower chamber to observe migratability. 3% ACN, 200 μM control peptide (Ctrl-pep), MSLN-pep 25. For 50, 100, and 200 μM groups, the media in the upper chamber of 24-Transwell were removed, each drug was treated by concentration, and 10% FBS was treated in the lower chamber. Each group was cultured at 37° C. for 24 hours, and then the cells were photographed (original magnification, ×100) by concentration of each peptide. Cells were stained with crystal violet (0.1%), and the ImageJ, a computer program, was used for quantitative evaluation.
as §3

[8] = target: T1, human mesothelin (endogenous, on pancreatic cancer cell lines AsPC-1, PANC-1, BxPC-3, MiaPaCa-2) (human, UniProt Q13421 296-598); experiment: cell-based or functional assay
[9] = target: T1, human mesothelin (endogenous, on …); experiment: confocal microscopy on PANC-1 and AsPC-1 cells, 1 and 2 hours

T1 sequence (Q13421 other isoform, or with tags, fused parts or gaps limits assumed): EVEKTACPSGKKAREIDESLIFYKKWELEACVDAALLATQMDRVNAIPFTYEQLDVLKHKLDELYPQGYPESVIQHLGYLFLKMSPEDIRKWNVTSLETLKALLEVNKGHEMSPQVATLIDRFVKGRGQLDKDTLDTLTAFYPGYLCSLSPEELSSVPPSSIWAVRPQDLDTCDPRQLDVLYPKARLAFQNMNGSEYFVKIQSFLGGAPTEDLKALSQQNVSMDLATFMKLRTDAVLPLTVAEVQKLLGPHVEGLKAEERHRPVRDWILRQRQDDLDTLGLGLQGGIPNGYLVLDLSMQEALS
mesothelin, sequence (Q13421 with tags, fused parts or gaps): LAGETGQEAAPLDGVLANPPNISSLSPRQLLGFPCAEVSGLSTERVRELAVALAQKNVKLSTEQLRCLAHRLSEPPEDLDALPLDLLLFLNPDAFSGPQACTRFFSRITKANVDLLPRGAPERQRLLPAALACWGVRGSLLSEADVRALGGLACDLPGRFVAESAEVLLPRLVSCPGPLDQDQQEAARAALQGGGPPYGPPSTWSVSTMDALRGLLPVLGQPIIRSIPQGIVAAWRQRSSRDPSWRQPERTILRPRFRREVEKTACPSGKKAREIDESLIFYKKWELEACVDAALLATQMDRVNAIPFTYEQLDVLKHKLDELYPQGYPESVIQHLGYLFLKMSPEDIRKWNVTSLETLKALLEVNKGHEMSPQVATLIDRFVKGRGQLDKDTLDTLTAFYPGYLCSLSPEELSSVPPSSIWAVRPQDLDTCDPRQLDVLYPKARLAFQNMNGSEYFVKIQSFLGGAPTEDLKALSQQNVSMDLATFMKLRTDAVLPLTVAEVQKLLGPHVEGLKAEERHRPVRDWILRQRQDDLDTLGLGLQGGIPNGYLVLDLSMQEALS

**Q.** For `CC[C@H](C)[C@@H]1NC(=O)[C@H]([C@@H](C)O)NC(=O)[C@@H](N)CSSC[C@@H](C(=O)N[C@@H](CCCCN)C(=O)N[C@@H](CC(C)C)C(=O)N[C@@H](C)C(=O)N[C@@H](CCCCN)C(=O)N[C@@H](CC(C)C)C(=O)N[C@@H](C)C(=O)N[C@@H](CCCCN)C(=O)N[C@@H](CCCCN)C(=O)N[C@@H](CC(C)C)C(=O)N[C@@H](C)C(=O)N[C@@H](CCCCN)C(=O)N[C@@H](CC(C)C)C(=O)N[C@@H](C)C(=O)N[C@@H](CCCCN)C(=O)O)NC(=O)[C@H]([C@@H](C)O)NC(=O)[C@H](CC(C)C)NC(=O)[C@H](CO)NC(=O)[C@H](Cc2c[nH]c3ccccc23)NC(=O)[C@H](CC(C)C)NC1=O` [MSLN-pep-KLA] (H-CTILWSLTCKLAKLAKKLAKLAK-OH; disulfide 1-9), which IC50 [1] is on record?
**A.** 33 µM

**Q.** And the “cell viability, comparison between groups” value ([2]; 0, 6.25, 12.5, 25, 50, 100, and 200 uM, 24 hours)?
**A.** second lowest

**Q.** What does the source list for `Nc1ccn([C@@H]2O[C@H](CO)[C@@H](O)C2(F)F)c(=O)n1` [gemcitabine, reference compound]?
**A.** IC50 ([2]; Homo sapiens, ASPC1, 24 h, read-out: IC50 value (cytotoxicity)): 3.3 µg/mL (≈ 12.5 µM); viability at 10 µg/mL ([2]; Homo sapiens, ASPC1, 24 h, read-out: cell viability): ≤ 40%

**Q.** For NSSSVDK [Ctrl-pep, reference compound], which “invasiveness compared to treatment of 10% FBS” value [3] is on record?
**A.** no difference in the migratability and invasiveness

**Q.** And the “binding and internalization into cells” value [4]?
**A.** did not bind to PANC-1 and AsPC-1

**Q.** And the “specific binding (immunofluorescence)” value [5]?
**A.** did not have specific binding

**Q.** And the “targeting to control organs (fluorescence microscopy of cryosections)” value [6]?
**A.** barely observed

**Q.** What about the “migratability compared to treatment of 10% FBS” value [7] of the same molecule?
**A.** no difference in the migratability and invasiveness

B1: MSLN-pep-KLA (fusion of CTILWSLTC and apoptotic peptide KLAKLAKKLAKLAK) (peptide)
peptide: CTILWSLTCKLAKLAKKLAKLAK
modifications: disulfide 1-9
**Q.** For B1, which “cell viability of AsPC-1 after 24 hours (CCK-8), IC50” value [8] is on record?
**A.** 33 µM

B2: NSSSVDK control peptide (Ctrl-pep) (peptide)
peptide: NSSSVDK
notes: Control peptide
**Q.** Does B2 bind [9]?
**A.** no binding (tested: 50 µM)
